Experiments:
Assay type in all cases: cell-based
[1] = tested on: TMD8 cells; experiment: Resazurin cell viability (proliferation) assay in TMD8 DLBCL cells; conditions: Homo sapiens, TMD8 cells (BTK dependent), 72 h, 50% growth inhibition vs vehicle, read-out: TMD8 Prol GI50
Protocol: (§1) Compounds of the invention were tested in the following cellular assays. The terms in Table 2 are defined as follows: DC50 refers to the concentration at which 50% maximal degradation was observed; deg Amax is the extent of degradation and the value refers to the % protein remaining at the concentration at which maximum degradation is seen; ProI GI50 refers to the proliferation data and defines the concentration at which 50% growth inhibition was observed compared to the vehicle treated control at the end of the incubation time. TMD8 cells are BTK dependent and OCI-LY3 cells are BTK independent.
(§2) Cell Viability Assay in DLBCL (Diffuse Large B-Cell Lymphoma) Cells:
(§3) The effect of the BTK compounds on cell proliferation was measured by a Resazurin (Sigma, #R7017) based cell viability assay. TMD8 (BTK compound sensitive) and OCI-LY3 (BTK compound insensitive) cells were incubated for 72 h at 37° C. and 5% CO2 with the corresponding compound, Resazurin is a non-toxic, cell-permeable substrate that is virtually non-fluorescent. Upon entering living cells, Resazurin (Sigma, #R7017) is reduced to highly fluorescent Resorufin. The metabolic activity was assessed by measuring the fluorescence signal (ex. 530 nm; em. 600 nm).
(§4) TMD8 and OCI-Ly3 cells were seeded at day 0 in triplicates at a cell density of 1×10^4 cells per 150 μl/well in a 96-well plate (Costar #3904). Additional plates were prepared, in order to assess the basal metabolic activity of both cell lines at the beginning of the experiment. For these reference plates, Resazurin (Sigma, #R7017) was added to a final concentration of 13 μg/ml 3 h post seeding and was incubated for 2 h at 37° C. and 5% CO2. Following incubation, the fluorescent signal intensity of the 96-well plates was measured on a Mithras LB940 multimode plate reader at 530/600 nm (Berthold Technologies, Germanyl).
(§5) In parallel, 3 h post-seeding, test-plates were treated with compound at various concentrations, or with vehicle (DMSO) alone for 3 days. The compound addition to the plates was performed by using a HP D300 digital dispenser (TECAN, Switzerland). The compounds were tested in triplicate, 8-point serial dilution (1:4), with a start concentration of 10 μM for OCI-LY3 and 1 μM for the TMD8 cells, respectively. To assess the relative proliferation of the cells, Resazurin was added to each well directly to the medium to a final concentration of 13 μg/ml. The plates were incubated for 2 h at 37° C. and 5% CO2 to result in a 72 h endpoint. Following incubation, the fluorescent signal intensity of the 96-well plates were measured on a Mithras LB940 multimode plate reader at 530/600 nm (Berthold Technologies, Germanyl). The formation of Resorufin dye directly correlates with the number of metabolically active cells. For each triplicate treatment the mean and standard deviation were calculated and analyzed via curve fitting software to determine the respective compound concentration resulting in 50% growth inhibition (GI50) values. For each compound GI50 values were typically determined from at least 2 entirely independent experiments.
TMD8 cells were acquired through a license agreement with Tokyo Medical and Dental University, Japan. Cells are cultivated in MEM Alpha (BioConcept, #1-23F01-1, lot. LB04262P) supplemented with 10% FCS (HyClone, GE #SH30066.03, lot AB3217603), 2 mM L-Glutamine (BioConcept, #5-10K50-H, lot. LA03467P), 1% Pen/Strep (BioConcept, #4-01F00-H, lot. LB04235P).

[2] = molecular target: T1, BTK-GFP (Homo sapiens, UniProt Q06187+Q96SW2); experiment: BTK-GFP protein abundance flow cytometry assay in HEK293A cells; conditions: HEK293A BTK-GFP-iresRFP cells, 24 h; for DC50: GFP signal by flow cytometry, concentration at which 50% maximal degradation was observed; for BTK deg Amax: % protein remaining at the concentration at which maximum degradation is seen
T1 construct: expressed in transfected cells; host or cells: HEK293A (Invitrogen R70507), lentiviral transduction with pLenti6-BTK-GFP-Ires-RFP, blasticidin selection
T1 sequence (Q06187 whole entry): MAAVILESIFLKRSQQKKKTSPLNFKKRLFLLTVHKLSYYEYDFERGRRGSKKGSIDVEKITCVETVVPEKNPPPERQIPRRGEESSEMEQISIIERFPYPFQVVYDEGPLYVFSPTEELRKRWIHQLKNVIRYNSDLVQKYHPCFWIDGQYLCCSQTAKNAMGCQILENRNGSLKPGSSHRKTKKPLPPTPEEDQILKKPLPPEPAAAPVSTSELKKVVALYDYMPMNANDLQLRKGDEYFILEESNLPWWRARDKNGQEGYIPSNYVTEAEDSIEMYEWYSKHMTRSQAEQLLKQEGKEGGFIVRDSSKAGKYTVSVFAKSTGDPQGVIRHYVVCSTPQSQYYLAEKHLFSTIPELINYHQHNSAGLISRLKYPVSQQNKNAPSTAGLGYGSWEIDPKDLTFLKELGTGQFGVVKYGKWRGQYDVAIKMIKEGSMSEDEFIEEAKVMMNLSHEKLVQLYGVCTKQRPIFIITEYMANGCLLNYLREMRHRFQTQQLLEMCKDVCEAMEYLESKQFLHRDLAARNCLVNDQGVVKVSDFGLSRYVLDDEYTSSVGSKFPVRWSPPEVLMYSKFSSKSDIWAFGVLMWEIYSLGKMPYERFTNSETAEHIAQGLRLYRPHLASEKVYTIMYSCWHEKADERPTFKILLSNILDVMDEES
T1 sequence (Q96SW2 whole entry): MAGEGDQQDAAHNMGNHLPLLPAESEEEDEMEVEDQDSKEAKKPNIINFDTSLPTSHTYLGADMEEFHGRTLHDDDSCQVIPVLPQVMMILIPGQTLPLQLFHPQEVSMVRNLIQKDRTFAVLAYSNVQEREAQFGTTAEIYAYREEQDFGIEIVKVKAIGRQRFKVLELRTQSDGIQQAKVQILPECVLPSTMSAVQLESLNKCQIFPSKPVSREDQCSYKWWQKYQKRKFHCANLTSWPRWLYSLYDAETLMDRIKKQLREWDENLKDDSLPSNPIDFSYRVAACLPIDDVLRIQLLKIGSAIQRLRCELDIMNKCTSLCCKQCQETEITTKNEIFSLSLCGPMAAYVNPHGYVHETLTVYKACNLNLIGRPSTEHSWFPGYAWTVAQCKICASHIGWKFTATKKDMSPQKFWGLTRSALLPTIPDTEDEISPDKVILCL
T1 sequence (Q16531 whole entry partner): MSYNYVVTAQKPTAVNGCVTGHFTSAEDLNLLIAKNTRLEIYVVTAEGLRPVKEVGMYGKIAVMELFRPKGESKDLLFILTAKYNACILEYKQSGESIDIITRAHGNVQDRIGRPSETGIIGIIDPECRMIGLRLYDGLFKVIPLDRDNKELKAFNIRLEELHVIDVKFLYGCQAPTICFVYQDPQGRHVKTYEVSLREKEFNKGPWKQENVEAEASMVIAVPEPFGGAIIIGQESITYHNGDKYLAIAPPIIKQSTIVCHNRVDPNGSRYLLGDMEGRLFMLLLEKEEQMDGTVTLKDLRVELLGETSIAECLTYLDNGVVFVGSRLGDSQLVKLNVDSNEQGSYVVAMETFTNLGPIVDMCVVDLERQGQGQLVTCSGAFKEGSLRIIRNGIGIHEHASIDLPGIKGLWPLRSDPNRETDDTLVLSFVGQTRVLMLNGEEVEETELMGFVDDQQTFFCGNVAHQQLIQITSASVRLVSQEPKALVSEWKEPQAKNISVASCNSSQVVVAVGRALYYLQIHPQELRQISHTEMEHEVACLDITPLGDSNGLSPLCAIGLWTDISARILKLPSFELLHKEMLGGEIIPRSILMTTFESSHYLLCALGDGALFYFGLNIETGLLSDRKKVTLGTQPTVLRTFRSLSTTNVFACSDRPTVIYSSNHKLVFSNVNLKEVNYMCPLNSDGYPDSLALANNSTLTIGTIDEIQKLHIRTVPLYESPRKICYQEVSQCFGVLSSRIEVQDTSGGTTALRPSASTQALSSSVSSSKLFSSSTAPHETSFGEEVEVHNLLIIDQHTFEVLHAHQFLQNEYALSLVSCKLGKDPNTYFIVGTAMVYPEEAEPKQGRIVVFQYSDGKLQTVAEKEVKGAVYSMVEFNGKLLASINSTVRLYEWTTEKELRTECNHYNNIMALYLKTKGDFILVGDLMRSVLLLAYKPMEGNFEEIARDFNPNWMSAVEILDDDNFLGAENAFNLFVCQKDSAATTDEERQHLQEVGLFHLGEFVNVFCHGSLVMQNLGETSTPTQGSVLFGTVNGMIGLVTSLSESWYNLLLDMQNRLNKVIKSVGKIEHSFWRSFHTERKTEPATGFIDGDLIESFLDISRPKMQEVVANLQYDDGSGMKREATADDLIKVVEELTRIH
Protocol: as §1
BTK-GFP and IKZF3-GFP protein abundance flow cytometry assay in HEK293A cells:
Degradation of BTK or IKZF3 was measured in HEK293A cells (Invitrogen R70507) expressing either BTK-GFP and RFP or IKZF3-GFP and RFP from a stably integrated bicistronic BTK-GFP-iresRFP or IKZF3-GFP-iresRFP construct, respectively. Reduction of the GFP signal measured by flow cytometry served as readout for BTK or IKZF3 degradation after degrader treatment.
i) Cloning of the pLenti6-BTK-GFP-1Res-RFP and IKZF3-GFP-Ires-RFP Sensor Vectors
The bicistronic BTK-GFP-iresRFP construct is based on a pLenti6-DEST vector backbone where GFP was introduced into the unique Xho1 site downstream of the destination cassette (DEST) and RFP was cloned behind an internal ribosomal entry site (Ires).
In detail, the sensor construct was engineered by replacing NanoLuciferase (NLuc) by GFP and FireFly luciferase (FF) by RFP from pLenti6-DEST-NLuc-Ires-FF.
The pLenti6-DEST-NLuc-Ires-FF sensor construct was cloned by replacing eGFP from pLenti6-DEST-ires-eGFP with a synthesized stuffer element (encoding Ires-FF with FF flanked by two Nhe1 restriction sites) using blunt end cloning replacing Ires-eGFP between the two PmII. To enable C-terminal tagging with NanoLuciferase (NLuc), NLuc was amplified from pNL1.1 (Promega #N1001) using linker primers with Xho1 sites for ligating into linearized pLenti6-DEST-Ires-FF using Xho1 digest resulting in the construct pLenti6-DEST-NLuc-Ires-FF.
The pLenti6-DEST-NLuc-Ires-FF served as base vector for cloning pLenti6-DEST-GFP-Ires-RFP using Gibson assembly to replace FF with RFP and NLuc with GFP. In a first round FF was replaced by RFP by amplifying RFP from a template using the following Gibson assembly linker primers (Gibson-Nhe1 RFPfw, […]gctagc[…] (SEQ ID NO: 1); Gibson-Nhe1 RFP-Stoprev, […]ctagc[…] (SEQ ID NO: 2)) to clone into pLenti6-DEST-NLuc-Ires-FF digested with Nhe1 and gel-purified to remove the FF fragment. The resulting pLenti6-DEST-NLuc-Ires-RFP vector served as the template to replace NLuc with GFP by amplifying GFP from a template using following Gibson assembly linker primers (Gibson-Xho1 GFPfw, […]c[…] (SEQ ID NO: 3); Gibson-Xho1 GFP-Stoprev, […] (SEQ ID NO: 4)) to clone into pLenti6-DEST-NLuc-Ires-RFP digested with Xho1 and gel-purified to remove the NLuc fragment. All Gibson assembly reactions were performed with Gibson assembly Master Mix (New England Biolabs NEB E261 IL) according to manufacturer's manual, resulting in the destination vector pLenti6-DEST-GFP-Ires-RFP to allow Gateway cloning. To enable gateway cloning and C-terminal GFP tagging of BTK, the BTK open reading frame (ORF) was first shuttled from a pcDNA-DEST40-BTK vector (Invitrogen library ID INV_20090504v1) into pDONR221 (Invitrogen 12536-017) vector using a gateway BP reaction according to the manufacturer's manual (Invitrogen 11789-013) resulting in the novel construct pENTR221-BTK. For C-terminal tagging the STOP codon was mutated to a leucine performing a mutagenesis reaction with the following primers (pENTR221-BTK Quikchange STOP-Leu fw, gtcatggatgaagaatccTTGaacccagctttcttgtac; pENTR221-BTK Quikchange STOP-Leu REVC, gtacaagaaagctgggttCAAggattcttcatccatgac) using the QuikChange Lightning mutagenesis kit (Agilent Technologies #210518) according to the manufacturer's manual, resulting in pENTR221-BTK (STOP-Leu). […]

[3] = tested on: OCI-LY3 cells; experiment: Resazurin cell viability (proliferation) assay in OCI-LY3 DLBCL cells; conditions: Homo sapiens, OCI-LY3 cells (BTK independent), 72 h, 50% growth inhibition vs vehicle, read-out: OCI-LY3 Prol GI50
Protocol: as §1, §2, §3, §4, §5
OCI-LY3 cells were acquired through a license agreement with University Health Network, Toronto, Canada. Cells are cultivated in RPM11640 media (Gibco, #61870-010, lot. 1894759), supplemented with 10% FCS (HyClone, GE #SH30066.03, lot AB217603), 2 mM L-Glutamine (BioConcept, #5-10K50-H, lot. LA03467P), 1 mM Sodium Pyruvate (BioConcept, #5-60F00-H, lot. LB10510P), 10 mM HEPES (Gibco, #15630-056, lot. 1854074), 1% Pen/Strep (BioConcept, #4-01F00-H, lot. LB04235P).

SMILES | DC50 [2] | BTK deg Amax [2] | GI50 [3] | GI50 [1]
COc1ccc(C(=O)N2CCC3(CCN(Cc4ccc(-c5cc6c(-c7cc(F)cc(NC(=O)c8ccc(C(C)(C)O)cc8F)c7C)ncnc6[nH]5)cc4)C[C@H]3CO)CC2)cc1N1CCC(=O)NC1=O (single isomer, unassigned) [Compound 25] | 78.4 nM | 7.2% | > 10000 nM | 11.4 nM
COc1ccc(C(=O)N2CCN(CCNCCCCOc3ccc(-c4cc5c(-c6cc(F)cc(NC(=O)c7ccc(C(C)(C)O)cc7F)c6C)ncnc5[nH]4)cc3)CC2)cc1N1CCC(=O)NC1=O [Compound 36, N-(3-(6-(4-(4-((2-(4-(3-(2,4-dioxotetrahydropyrimidin-1(2H)-yl)-4-methoxybenzoyl)piperazin-1-yl)ethyl)amino)butoxyl)phenyl)-7H-pyrrolo[2,3-d]pyrimidin-4-yl)-5-fluoro-2-methylphenyl)-2-fluoro-4-(2-hydroxypropan-2-yl)benzamide] | 37 nM | 2.4% | > 10000 nM | 2.94 nM
COc1ccc(C(=O)N2CCN(CCN3CCN(Cc4ccc(-c5cc6c(-c7cc(F)cc(NC(=O)c8ccc(C(C)(C)O)cc8F)c7C)ncnc6[nH]5)cc4)CC3)CC2)cc1N1CCC(=O)NC1=O [Compound 16, N-(3-(6-(4-((4-(2-(4-(3-(2,4-Dioxotetrahydropyrimidin-1(2H)-yl)-4-methoxybenzoyl)piperazin-1-yl)ethyl)piperazin-1-yl)methyl)phenyl)-7H-pyrrolo[2,3-d]pyrimidin-4-yl)-5-fluoro-2-methylphenyl)-2-fluoro-4-(2-hydroxypropan-2-yl)benzamide] | 4.2 nM | 4.1% | > 10000 nM | 0.67 nM
COc1ccc(C(=O)NCCN2CC3(CCN(Cc4ccc(-c5cc6c(-c7cc(F)cc(NC(=O)c8ccc(C(C)(C)O)cc8F)c7C)ncnc6[nH]5)cc4)CC3)C2)cc1N1CCC(=O)NC1=O [Compound 52, N-(3-(6-(4-((2-(2-(3-(2,4-dioxotetrahydropyrimidin-1(2H)-yl)-4-methoxybenzamido)ethyl)-2,7-diazaspiro[3.5]nonan-7-yl)methyl)phenyl)-7H-pyrrolo[2,3-d]pyrimidin-4-yl)-5-fluoro-2-methylphenyl)-2-fluoro-4-(2-hydroxypropan-2-yl)benzamide] | 2580 nM | 43.7% | > 10000 nM | 22.7 nM

The next lines start with results.

DC50 [2] | BTK deg Amax [2] | GI50 [3] | SMILES | GI50 [1]
1.2 nM | 4.1% | 7770 nM | Cc1ccc(C(=O)N2CCC(OC3CCN(Cc4ccc(-c5cc6c(-c7cc(F)cc(NC(=O)c8ccc(C(C)(C)O)cc8F)c7C)ncnc6[nH]5)cc4)CC3)CC2)cc1N1CCC(=O)NC1=O [Compound 50, N-(3-(6-(4-((4-((1-(3-(2,4-dioxotetrahydropyrimidin-1(2H)-yl)-4-methylbenzoyl)piperidin-4-yl)oxy)piperidin-1-yl)methyl)phenyl)-7H-pyrrolo[2,3-d]pyrimidin-4-yl)-5-fluoro-2-methylphenyl)-2-fluoro-4-(2-hydroxypropan-2-yl)benzamide] | 0.66 nM
0.4 nM | 1.6% | 3380 nM | COc1ccc(C(=O)N2CCC(CCCN3CCC(Oc4ccc(-c5cc6c(-c7cc(F)cc(NC(=O)c8ccc(C(C)(C)O)cc8F)c7C)ncnc6[nH]5)cc4)CC3)CC2)cc1N1CCC(=O)NC1=O [Compound 15, N-(3-(6-(4-((1-(3-(1-(3-(2,4-Dioxotetrahydropyrimidin-1(2H)-yl)-4-methoxybenzoyl)piperidin-4-yl)propyl)piperidin-4-yl)oxyl)phenyl)-7H-pyrrolo[2,3-d]pyrimidin-4-yl)-5-fluoro-2-methylphenyl)-2-fluoro-4-(2-hydroxypropan-2-yl)benzamide] | 0.56 nM
0.9 nM | 1.8% | 4920 nM | COc1ccc(C(=O)N2CCC(OCCN3CCC(Oc4ccc(-c5cc6c(-c7cc(F)cc(NC(=O)c8ccc(C(C)(C)O)cc8F)c7C)ncnc6[nH]5)cc4)CC3)CC2)cc1N1CCC(=O)NC1=O [Compound 58, N-(3-(6-(4-((1-(2-((1-(3-(2,4-dioxotetrahydropyrimidin-1(2H)-yl)-4-methoxybenzoyl)piperidin-4-yl)oxy)ethyl)piperidin-4-yl)oxy)phenyl)-7H-pyrrolo[2,3-d]pyrimidin-4-yl)-5-fluoro-2-methylphenyl)-2-fluoro-4-(2-hydroxypropan-2-yl)benzamide] | 0.56 nM

Reference: patent publication US12441733B2, “Substituted 2,4-dioxotetrahydropyrimidines as intermediates in the synthesis of bruton's tyrosine kinase inhibitors” (Novartis AG, priority 2018, dated 2025)
